Assay results as given in patent publication US11738031B2, “Compositions and methods for preventing or treating muscle conditions” (The Board of Trustees of the Leland Stanford Junior …, priority 2017, dated 2023).

Legend:
Nurr1 = Nurr1 expression in MuSCs (qRT-PCR, flow cytometry); assay type: cell-based, mouse; conditions: 24 hr PGE2 treatment in culture
Method: We analyzed NURR1 levels by flow cytometry using myogenic progenitors after a 24 hr treatment of vehicle (DMSO) or PGE2 (10 ng/ml), or from MuSCs transfected with shSCR or shNurr1 (see Knockdown assays section). We collected cells by incubation with 0.5% trypsin in PBS for 2 min at 37° C. We fixed the cells using 1.6% paraformaldehyde in PBS and then permeabilized them in ice-cold methanol. We then blocked them in staining buffer (0.5% BSA in PBS) for 30 min at room temperature and stained them with a Mouse monoclonal anti-Nurr1 (Abcam, catalog #ab41917, 1:75) primary antibody or anti-mouse IgG control (Jackson ImmunoResearch Laboratories). […] We analyzed the cells on a FACS LSR II cytometer using FACSDiva software (BD Biosciences) in the Stanford Shared FACS Facility, purchased using an NIH S10 Shared Instrument Grant (S10RR027431-01).
We isolated RNA from MuSCs using the RNeasy Micro Kit (Qiagen). […] To quantify relative transcript levels, we used 2^ΔΔCt to compare treated and untreated samples and expressed the results relative to Gapdh. […] TaqMan Assays (Applied Biosystems) were used to quantify Pax7, Myogenin, Nurr1, Ptger3 and Ptger4 in samples according to the manufacturer instructions with the TaqMan Universal PCR Master Mix reagent kit (Applied Biosystems). […]

aged MuSCs = assay: Aged MuSC proliferation in culture; assay type: cell-based, mouse
Method: Muscle stem cell culture, treatment and lentiviral infection: Following isolation, we resuspended MuSCs in myogenic cell culture medium containing DMEM/F10 (50:50), 15% FBS, 2.5 ng ml^−1 fibroblast growth factor-2 (FGF-2 also known as bFGF) and 1% penicillin-streptomycin. We seeded MuSC suspensions at a density of 500 cells per cm^2 surface area. We maintained cell cultures at 37° C. in 5% CO2 and changed medium daily. For PGE2, 15-PGDH inhibitor and EP4 receptor antagonist treatment studies, we added 1-200 ng/ml Prostaglandin E2 (Cayman Chemical) (unless specified in the figure legends, 10 ng/ml was the standard concentration used), and/or 1 μM EP4 antagonist (ONO-AE3-208, Cayman Chemical), or 1 μM 15-PGDH inhibitor (SW033291, Cayman Chemical) to the MuSCs cultured on collagen coated dishes for the first 24 h. The cells were then trypsinized and cells reseeded onto hydrogels for an additional 6 days of culture. All treatments were compared to their solvent (DMSO) vehicle control. For stripped serum assays, we resuspended isolated MuSCs in medium containing DMEM/F10 (50:50), 15% charcoal stripped FBS (Gibco, cat #12676011), 2.5 ng ml^−1 bFGF and 1% penicillin-streptomycin. […]
Proliferation assays: To assay proliferation, we used three different assays (hemocytometer, VisionBlue, and EdU). […] For hemocytometer cell number count, we collected cells at indicated timepoints by incubation with 0.5% trypsin in PBS for 5 min at 37° C. and quantified them using a hemocytometer at least 3 times. Additionally, we used the VisionBlue Quick Cell Viability Fluorometric Assay Kit (BioVision, catalog #K303) as a readout for cell growth in culture. Briefly, we incubated MuSCs with 10% VisionBlue in culture medium for 3 h, and measured fluorescence intensity on a fluorescence plate reader (Infinite M1000 PRO, Tecan) at Ex=530-570 nm, Em=590-620 nm. […] We quantified EdU positive cells using the MetaMorph Image Analysis software (Molecular Devices). Data analyses were blinded, where researchers performing cell scoring were unaware of the treatment condition given to sample groups analyzed.

## CCCCC[C@H](O)/C=C/[C@H]1[C@H](O)CC(=O)[C@@H]1C/C=C\CCCC(=O)O [PGE2, prostaglandin E2]
Nurr1
  Nurr1 mRNA and protein expression: increased Nurr1 mRNA and protein expression
Aged MuSCs; PGE2 10 ng/ml every two days for 7 days
  aged MuSC proliferation in charcoal stripped serum medium: rescued by addition of PGE2 alone
Aged MuSCs; PGE2 10 ng/ml or SW033291 1 μM, 24 hr, assayed at day 7
  aged MuSC proliferation and Pax7 expression after 1-day pulse: characteristic increase in proliferation and maintenance of Pax7 expression
